The subject of the assay is Bovine cardiac myofibrils. Kind of assay: In vitro model of dose-dependent myofibril ATPase modulation (AC1.4, pyruvate kinase/lactate dehydrogenase-coupled ATPase assay at pCa25). It counts as biochemical. The following applies: concentration at which ATPase activity was 1.4-fold higher than the bottom of the dose curve, mean of a minimum of two independent tests. The procedure: In vitro Model of Dose-Dependent Myofibril ATPase Modulation: Dose responses were measured using a calcium-buffered, pyruvate kinase and lactate dehydrogenase-coupled ATPase assay containing the following reagents (concentrations expressed are final assay concentrations): Potassium PIPES (12 mM), MgCl2 (2 mM), ATP (1 mM), DTT (1 mM), BSA (0.1 mg/mi), NADH (0.5 mM), PEP (1.5 mM), pyruvate kinase (4 U/ml), lactate dehydrogenase (8 U/ml), and antifoam (90 ppm). The pH was adjusted to 6.80 at 22° C. by addition of potassium hydroxide.
Bovine cardiac myofibrils were obtained by homogenizing the appropriate tissue in the presence of detergent. Such treatment removes membranes and majority of soluble cytoplasmic proteins but leaves intact cardiac sarcomeric acto-myosin apparatus. Concentrations of myofibrils were adjusted to achieve the necessary rate of ATP hydrolysis (typically 0.25-1.0 mg/ml).
Assays were performed by first preparing a dilution series of test chemical entity, each with an assay mixture containing potassium Pipes, MgCl2, BSA, DTT, pyruvate kinase, lactate dehydrogenase, myofibrils, antifoam, EGTA, CaCl2, and water. The assay was started by adding an equal volume of solution containing potassium Pipes, MgCl2, BSA, DTT, ATP, NADH, PEP, antifoam, and water. ATP hydrolysis was monitored by absorbance at 340 nm. The resulting dose response curve was fit by the 4 parameter equation y=Bottom+((Top−Bottom)/(1+((EC50/X)^Hill))). […] AC1.4 values reported in the table below are mean values based on a minimum of two independent tests.
`N#CC1CN(S(=O)(=O)N2CCC[C@H](C(=O)N3CCC[C@@H]3C(=O)NCc3ccc(C(F)(F)F)cn3)C2)C1` [Example 373, 1-(((3S)-1-((3-cyano-1-azetidinyl)sulfonyl)-3-piperidinyl)carbonyl)-N-((5-(trifluoromethyl)-2-pyridinyl)methyl)-D-prolinamide] returned an AC1.4 of 1.2258 µM.

Turning to `CCNc1ccc(S(C)(=O)=O)cc1C(=O)N1CCC[C@@H]1C(=O)N[C@@H](c1ccc(C(F)(F)F)cc1F)C1CC1` [Example 79, N-((R)-cyclopropyl(2-fluoro-4-(trifluoromethyl)phenyl)methyl)-1-(2-(ethylamino)-5-(methylsulfonyl)benzoyl)-D-prolinamide], the AC1.4 is 0.104 µM.

`CC(C)[C@H](NC(=O)[C@H]1CCCN1C(=O)c1cccc(S(=O)(=O)N2CC(C#N)C2)c1)c1ccc(C(F)(F)F)cc1F` [Example 220, 1-(3-((3-cyano-1-azetidinyl)sulfonyl)benzoyl)-N-((1S)-1-(2-fluoro-4-(trifluoromethyl)phenyl)-2-methylpropyl)-D-prolinamide] came in with an AC1.4 of 0.4809 µM.

The compound `CN(C)S(=O)(=O)c1cccc(C(=O)N2CCC[C@@H]2C(=O)N[C@H](CO)c2ccc(Cl)c(F)c2)c1` [Example 634, N-((1S)-1-(4-chloro-3-fluorophenyl)-2-hydroxyethyl)-1-(3-(dimethylsulfamoyl)benzoyl)-D-prolinamide] displayed an AC1.4 of 4.1045 µM.

With `CCS(=O)(=O)c1cncc(C(=O)N2[C@@H](C(=O)N[C@@H](c3cc(F)c(Cl)cc3F)C3CC3)C[C@H]3C[C@H]32)c1` [Example 160, (1R,3R,5R)-N-((R)-(4-chloro-2,5-difluorophenyl)(cyclopropyl)methyl)-2-((5-(ethylsulfonyl)-3-pyridinyl)carbonyl)-2-azabicyclo[3.1.0]hexane-3-carboxamide], the AC1.4 worked out at 0.274 µM.

`CS(=O)(=O)c1cccc(C(=O)N2[C@@H](C(=O)N[C@@H](c3cc(F)c(Cl)cc3F)C3COC3)C[C@H]3C[C@H]32)c1` [Example 74, (1R,3R,5R)-N-((R)-(4-chloro-2,5-difluorophenyl)(3-oxetanyl)methyl)-2-(3-(methylsulfonyl)benzoyl)-2-azabicyclo[3.1.0]hexane-3-carboxamide]: the AC1.4 is 0.09935 µM.

Turning to `CN(C)S(=O)(=O)c1cccc(C(=O)N2C[C@H]3C[C@H]3[C@@H]2C(=O)NCc2ccc(C(F)(F)F)cc2)c1` [Example 478, (1R,2R,5S)-3-(3-(dimethylsulfamoyl)benzoyl)-N-(4-(trifluoromethyl)benzyl)-3-azabicyclo[3.1.0]hexane-2-carboxamide], the AC1.4 was 2.082 µM.

The compound `CCS(=O)(=O)c1cccc(C(=O)N2[C@@H](C(=O)N[C@@H](c3ccc(C(F)(F)F)cc3F)C3(O)CC3)C[C@H]3C[C@H]32)c1` [Example 382, (1R,3R,5R)-2-(3-(ethylsulfonyl)benzoyl)-N-((S)-(2-fluoro-4-(trifluoromethyl)phenyl)(1-hydroxycyclopropyl)methyl)-2-azabicyclo[3.1.0]hexane-3-carboxamide] gave an AC1.4 of 1.232 µM.

In the case of `N#CC1CN(S(=O)(=O)c2cccc(C(=O)N3CCC[C@@H]3C(=O)NCc3ccc(Cl)cc3)c2)C1` [Example 43, N-(4-chlorobenzyl)-1-((3-((3-cyano-1-azetidinyl)sulfonyl)phenyl)carbonyl)-D-prolinamide], the AC1.4 came to 0.04337 µM.

In turn, `C[C@@H](NC(=O)[C@H]1C[C@H]2C[C@H]2N1C(=O)c1cccc(S(C)(=O)=O)c1)c1cc(F)c(Cl)cc1F` [Example 534, (1R,3R,5R)-N-((1R)-1-(4-chloro-2,5-difluorophenyl)ethyl)-2-(3-(methylsulfonyl)benzoyl)-2-azabicyclo[3.1.0]hexane-3-carboxamide] had an AC1.4 of 2.611 µM.

In turn, `O=C(N[C@@H](c1cc(F)c(Cl)cc1F)C1COC1)[C@H]1C[C@H]2C[C@H]2N1C(=O)c1ccnc(C(F)(F)F)c1` [Example 171, (1R,3R,5R)-N-((R)-(4-chloro-2,5-difluorophenyl)(3-oxetanyl)methyl)-2-((2-(trifluoromethyl)-4-pyridinyl)carbonyl)-2-azabicyclo[3.1.0]hexane-3-carboxamide] gave an AC1.4 of 0.2934 µM.

In turn, `N#CC1CN(S(=O)(=O)N2CCC[C@H](C(=O)N3CCC[C@@H]3C(=O)NCc3cccc(F)c3)C2)C1` [Example 496, 1-(((3S)-1-((3-cyano-1-azetidinyl)sulfonyl)-3-piperidinyl)carbonyl)-N-(3-fluorobenzyl)-D-prolinamide] yielded an AC1.4 of 2.291 µM.

As to `COc1ccc(S(C)(=O)=O)cc1C(=O)N1CCC[C@@H]1C(=O)N[C@@H](c1ccc(C(F)(F)F)cc1F)C1CC1` [Example 602, N-((R)-cyclopropyl(2-fluoro-4-(trifluoromethyl)phenyl)methyl)-1-(2-methoxy-5-(methylsulfonyl)benzoyl)-D-prolinamide], the AC1.4 stood at 3.4595 µM.

As for `CCC(NC(=O)[C@H]1CCCN1C(=O)[C@H]1CCCN(S(=O)(=O)N2CC(C#N)C2)C1)c1ccccc1OC` (stereo partly drawn) [Example 804, (2R)-1-((S)-1-((3-cyanoazetidin-1-yl)sulfonyl)piperidine-3-carbonyl)-N-(1-(2-methoxyphenyl)propyl)pyrrolidine-2-carboxamide], the AC1.4 is 9.7525 µM.

In the case of `N#CC1CN(S(=O)(=O)N2CCC[C@H](C(=O)N3CCC[C@@H]3C(=O)N[C@H](CO)c3ccc(C(F)(F)F)cc3)C2)C1` [Example 88, 1-(((3S)-1-((3-cyano-1-azetidinyl)sulfonyl)-3-piperidinyl)carbonyl)-N-((1S)-2-hydroxy-1-(4-(trifluoromethyl)phenyl)ethyl)-D-prolinamide], the AC1.4 came to 0.1344 µM.

The compound `CCC(NC(=O)[C@H]1CCCN1C(=O)[C@H]1CCCN(S(=O)(=O)N2CC(C)(O)C2)C1)c1ccc(C(F)(F)F)cc1` (stereo partly drawn) [Example 668, (2R)-1-((S)-1-((3-hydroxy-3-methylazetidin-1-yl)sulfonyl)piperidine-3-carbonyl)-N-(1-(4-(trifluoromethyl)phenyl)propyl)pyrrolidine-2-carboxamide] registered an AC1.4 of 4.71 µM.

As for `C[C@H](NC(=O)[C@H]1CCCN1C(=O)c1cccc(S(=O)(=O)N2CC(C#N)C2)c1)c1ccc(Cl)cc1` [Example 330, N-((1S)-1-(4-chlorophenyl)ethyl)-1-((3-((3-cyano-1-azetidinyl)sulfonyl)phenyl)carbonyl)-D-prolinamide], the AC1.4 amounted to 0.8972 µM.

In turn, `C[C@@H](NC(=O)[C@H]1CCCN1C(=O)c1cccc(S(=O)(=O)N2CC(C#N)C2)c1)c1ccc(C(F)(F)F)cc1` [Example 41, 1-((3-((3-cyano-1-azetidinyl)sulfonyl)phenyl)carbonyl)-N-((1R)-1-(4-(trifluoromethyl)phenyl)ethyl)-D-prolinamide] came in with an AC1.4 of 0.04135 µM.

With `N#CC1CN(S(=O)(=O)N2CCC[C@H](C(=O)N3CCOC[C@@H]3C(=O)NCc3ccc(C(F)F)cc3)C2)C1` [Example 448, (3R)-4-(((3S)-1-((3-cyano-1-azetidinyl)sulfonyl)-3-piperidinyl)carbonyl)-N-(4-(difluoromethyl)benzyl)-3-morpholinecarboxamide], the AC1.4 came out at 1.844 µM.

Consider `CC(C)(C)c1cc(C(=O)N2[C@@H](C(=O)N[C@@H](c3ccc(Cl)cc3F)C3COC3)C[C@H]3C[C@H]32)ccn1` [Example 738, (1R,3R,5R)-N-((R)-(4-chloro-2-fluorophenyl)(3-oxetanyl)methyl)-2-((2-(2-methyl-2-propanyl)-4-pyridinyl)carbonyl)-2-azabicyclo[3.1.0]hexane-3-carboxamide], for which the AC1.4 turned out to be 7.0545 µM.

As for `O=C(N[C@@H](c1ccc(C(F)(F)F)cc1F)C1CC1)[C@H]1CCCN1C(=O)c1cccc(C(O)(O)C(F)(F)F)c1` [Example 523, (R)—N—((R)-cyclopropyl(2-fluoro-4-(trifluoromethyl)phenyl)methyl)-1-(3-(2,2,2-trifluoro-1,1-dihydroxyethyl)benzoyl)pyrrolidine-2-carboxamide], the AC1.4 amounted to 2.582 µM.

Consider `O=C(N[C@@H](c1ccc(C(F)(F)F)cc1F)C1CC1)[C@H]1CCCN1C(=O)c1cccc(Cl)c1` [Example 378, 1-(3-chlorobenzoyl)-N-((R)-cyclopropyl(2-fluoro-4-(trifluoromethyl)phenyl)methyl)-D-prolinamide], for which the AC1.4 was determined as 1.227 µM.

`N#CC1CN(S(=O)(=O)N2CCC[C@H](C(=O)N3CCC[C@@H]3C(=O)NC3CCc4ccccc43)C2)C1` (stereo partly drawn) [Example 442, (2R)-1-((S)-1-((3-cyanoazetidin-1-yl)sulfonyl)piperidine-3-carbonyl)-N-(2,3-dihydro-1H-inden-1-yl)pyrrolidine-2-carboxamide] registered an AC1.4 of 1.7305 µM.

`N#CC1CN(S(=O)(=O)N2CCC[C@H](C(=O)N3[C@@H](C(=O)NCc4ccc(C(F)(F)F)cc4F)C[C@H]4C[C@H]43)C2)C1` [Example 33, (1R,3R,5R)-2-(((3S)-1-((3-cyano-1-azetidinyl)sulfonyl)-3-piperidinyl)carbonyl)-N-(2-fluoro-4-(trifluoromethyl)benzyl)-2-azabicyclo[3.1.0]hexane-3-carboxamide] returned an AC1.4 of 0.03455 µM.

Source of the values: patent US11780826B2 (Amgen Inc., priority 2017, dated 2023).
